Each block holds one molecule with its values, some of them ahead of it.
Key:
[1] = tested on: rabbit knee joint cartilage primary culture cells; assay: Proteoglycan degradation/release in rabbit knee joint cartilage primary culture cells (35S label); assay type: cell-based; details: for IC50: Oryctolagus cuniculus, read-out: proteoglycan degradation inhibition action (IC50)
Method: After killing a rabbit (Japanese white species, male, 1.0 to 1.5 kg) under excess anesthesia, a knee joint was excised and the cartilage layer on the joint surface was removed and finely cut using a surgical knife. The cut pieces were treated with trypsin-EDTA (0.25%-1 mM; mfd. by GIBCO-BRL) at 37° C. for 1 hour and then centrifuged at 1,500 rpm for 5 minutes, and the resulting precipitate was washed with DMEM. This was treated with collagenase A (0.15%; Boehringer-Mannheim)/DMEM at 37° C. for 3 to 4 hours, and then a nylon mesh filter (100 μm, mfd. by Falcon)-passed fraction was centrifuged at 1,500 rpm for 5 minutes to effect precipitation of cartilage cells. The cells were thoroughly washed with DMEM/10% FBS medium, suspended in DMEM/10% FBS medium to a density of 2×10^5 cells/ml and then inoculated in 200 μl/well portions into an I type collagen-coated 96 well plate (mfd. by Asahi Technoglass). Three days thereafter, the medium was changed to 200 μof DMEM/10% FBS medium containing 50 μg/ml of ascorbic acid (ascorbic acid medium hereinafter), and the culturing was continued for 3 days. When an I type collagen-coated 6 well plate (Asahi Technoglass) was used, the cell suspension was inoculated in 6 ml/well portions and cultured by carrying out the same medium exchange. These cells were used in the following test.
The rabbit knee joint cartilage primary culture cells of 96 well plate described in Example 11-1 were cultured for 2 days using 200 μl of the ascorbic acid medium supplemented with 10 μCi/ml in final concentration of Na2^35SO4 and labeled therewith, washed 3 times with 200 μl of the ascorbic acid medium and then cultured for 1 day using 200 μl of the ascorbic acid medium. After stimulation with IL-1β or all-trans retinoic acid and subsequent 0, 24, and 48 hours of culturing, the culture supernatants were recovered in 20 μl portions, and the radioactivity was measured using Top Count (mfd. by Packard).
Each of the compounds A, B, C and D selected by the screening system of Example 10-2 was added to the proteoglycan degradation system of rabbit knee joint cartilage primary culture cells just before the stimulation with 10 μM of all-trans retinoic acid, and their proteoglycan degradation inhibitory activities were examined.

[2] = tested on: MDTS6 mRNA; assay: Induction of MDTS6 mRNA expression in rabbit knee joint cartilage primary culture cells (RT-PCR); assay type: cell-based; details: 10 ng/ml of IL-1β or 10 μM of all-trans retinoic acid; 2 and 6 hours
Method: After 3 days of culturing of the rabbit knee joint cartilage primary culture cells of 6 well plate described in Example 11-1 by changing the medium to ascorbic acid medium, 10 ng/ml of IL-1β or 10 μM of all-trans retinoic acid was added thereto, and total RNA samples 2 and 6 hours thereafter were prepared using ISOGEN (mfd. by Nippon Gene) in accordance with the attached instructions. Each of the samples was treated with DNase I (mfd. by Nippon Gene), subjected to phenol/chloroform treatment and then recovered by ethanol precipitation, and the thus purified total RNA was dissolved in DEPC-treated sterile water. Using random hexamers as primers, 1 μg of this total RNA was subjected to reverse transcription reaction and RNase H treatment using Thermoscript™ RT-PCR System (mfd. by GIBCO-BRL, catalog number 11146-016) in accordance with the attached instructions, and the product was diluted 10 times with sterile water and used as a cDNA sample. Using 5 μl of each of the thus obtained cDNA samples as the template and the oligoDNA sequences represented by SEQ ID NO:18 and SEQ ID NO:19 as primers, PCR was carried out under a condition of 94° C. for 2 minutes, 45 repetitions of a cycle of 94° C. for 30 seconds, 65° C. for 30 seconds and 72° C. for 30 seconds, and subsequent 72° C. for 10 minutes. […]

[3] = tested on: recombinant aggrecan G1G2; assay: Recombinant aggrecan G1G2 degradation by expressed MDTS6 proteins (western blotting); assay type: biochemical, human; details: method of Example 7-3, anti-aggrecanase neoepitope antibody
Method: In Example 6, the medium 12 to 16 hours after introduction of the expression plasmid was replaced by a serum-free medium, and the culturing was continued for 32 to 36 hours to recover the culture supernatant. This culture supernatant was mixed with the recombinant aggrecan prepared in the foregoing, and the mixture was allowed to undergo the reaction at 37° C. overnight, subjected to SDS-PAGE, transferred on a PVDF membrane and blocked by the method described in Example 6 and then allowed to react with an anti-Hisx6 polyclonal antibody (sc-803; mfd. by Santa Cruz Biotechnology) and a horseradish peroxidase-labeled goat anti-rabbit IgG polyclonal antibody (mfd. by BML) in that order. After the reaction, the recombinant aggrecan was detected using an ECL western blotting system (mfd. by Amersham Pharmacia). As a result, degraded fragment of the recombinant aggrecan, which was not found in the control in which only the […] was introduced, was detected (FIG. 2).
Aggrecanase is a metalloprotease which selectively cleaves aggrecan at the site between Glu^373 -Ala^374. An antibody capable of recognizing a C-side neoepitope generated by this cleavage was prepared in accordance with a usual method by repeating immunization of mouse with a conjugate of the synthetic peptide represented by SEQ ID NO:32 and KLH, 5 times. A PVDF membrane after transfer and blocking carried out in the same manner as in Example 7-2 was allowed to react with this antibody, allowed to react with a peroxidase-labeled goat anti-mouse IgG polyclonal antibody (mfd. by Tago) and then detected using an ECL western blotting detection system (mfd. by Amersham Pharmacia). As a result, the degraded product of recombinant aggrecan generated by MDTS6 reacted with the anti-aggrecanase neoepitope antibody, and molecular weight of the detected band is consistent with the molecular weight of the degraded product detected in Example 7-2 (FIG. 3). The same result was obtained by the BC-3 antibody which recognizes aggrecanase neoepitope (Hughes C. E. et al., Biochemical J., 305, 799-804, 1995). […]

[4] = compound added just before stimulation with 10 μM of all-trans retinoic acid

Molecule: CC1=C(/C=C/C(C)=C/C=C/C(C)=C/C(=O)O)C(C)(C)CCC1 [all-trans retinoic acid, reference compound]
release of proteoglycan (increase in radioactivity of culture supernatant) ([1]; stimulation with 0.01 to 10 ng/ml IL-1β or 0.1 to 10 μM all-trans retinoic acid, 0, 24, 48 hours of culturing): concentration-dependent and strong radioactivity, namely release of proteoglycan, was observed
expression of the MDTS6 mRNA [2]: induced

Molecule: CNC(=O)C(Cc1ccc(OC)cc1)NC(=O)C(CC(C)C)C(CS)C(=O)NO (stereo not drawn) [compound A, N-^α-[2-(1-hydroxycarbamoyl-2-sulfanylethyl)-4-methylpentanoyl]-N,O-dimethyltyrosineamide]
inhibition of proteoglycan degradation (in words, FIG. 8) [1, 4]: inhibition of proteoglycan degradation in a concentration-dependent manner

IC50 [1, 4]: 4.1 µM
Molecule: CNC(=O)[C@H](Cc1ccc(OC)cc1)NC(=O)C(CC(C)C)C(CSC)C(=O)NO (stereo partly drawn) [compound D, N^α-[2-(1-hydroxycarbamoyl-2-methylsulfanylethyl)-4-methylpentanoyl]-N,O-dimethyltyrosineamide]

IC50 [1, 4]: 6.3 µM
Molecule: CNC(=O)[C@H](Cc1ccc(OC)cc1)NC(=O)C(CC(C)C)C(CSc1ccccc1)C(=O)NO (stereo partly drawn) [compound C, N^α-[2-(1-hydroxycarbamoyl-2-phenylsulfanylethyl)-4-methylpentanoyl]-N,O-dimethyltyrosineamide]

B1: MDTS6Pro: protein of amino acids 1st to 447th position of SEQ ID NO:1 with the polypeptide of SEQ ID NO:33 added to the C-terminus (protein)
chain: FVSIPRYVETLVVADESMVKFHGADLEHYLLTLLATAARLYRHPSILNPINIVVVKVLLLRDRDSGPKVTGNAALTLRNFCAWQKKLNKVSDKHPEYWDTAILFTRQDLCGATTCDTLGMADVGTMCDPKRSCSVIEDDGLPSAFTTAHELGHVFNMPHDNVKVCEEVFGKLRANHMMSPTLIQIDRANPWSACSAAIITDFLDSGHGDCLLDQPSKPISLPEDLPGASYTLSQQGSAAADYKDDDDK
aggrecanase activity in culture supernatant [3]: not detected

B2: MDTS6Dis: protein of amino acids 1st to 518th position of SEQ ID NO:1 with the polypeptide of SEQ ID NO:33 added to the C-terminus (protein)
chain: FVSIPRYVETLVVADESMVKFHGADLEHYLLTLLATAARLYRHPSILNPINIVVVKVLLLRDRDSGPKVTGNAALTLRNFCAWQKKLNKVSDKHPEYWDTAILFTRQDLCGATTCDTLGMADVGTMCDPKRSCSVIEDDGLPSAFTTAHELGHVFNMPHDNVKVCEEVFGKLRANHMMSPTLIQIDRANPWSACSAAIITDFLDSGHGDCLLDQPSKPISLPEDLPGASYTLSQQCELAFGVGSKPCPYMQYCTKLWCTGKAKGQMVCQTRHFPWADGTSCGEGKLCLKGACVERHNLNKHRVDGSGSAAADYKDDDDK
aggrecanase activity in culture supernatant [3]: not detected

B3: MDTS6Cys: protein of amino acids 1st to 687th position of SEQ ID NO:1 with the polypeptide of SEQ ID NO:33 added to the C-terminus (protein)
chain: FVSIPRYVETLVVADESMVKFHGADLEHYLLTLLATAARLYRHPSILNPINIVVVKVLLLRDRDSGPKVTGNAALTLRNFCAWQKKLNKVSDKHPEYWDTAILFTRQDLCGATTCDTLGMADVGTMCDPKRSCSVIEDDGLPSAFTTAHELGHVFNMPHDNVKVCEEVFGKLRANHMMSPTLIQIDRANPWSACSAAIITDFLDSGHGDCLLDQPSKPISLPEDLPGASYTLSQQCELAFGVGSKPCPYMQYCTKLWCTGKAKGQMVCQTRHFPWADGTSCGEGKLCLKGACVERHNLNKHRVDGSWAKWDPYGPCSRTCGGGVQLARRQCTNPTPANGGKYCEGVRVKYRSCNLEPCPSSASGKSFREEQCEAFNGYNHSTNRLTLAVAWVPKYSGVSPRDKCKLICRANGTGYFYVLAPKVVDGTLCSPDSTSVCVQGKCIKAGCDGNLGSKKRFDKCGVCGGDNKSCKKVTGGSAAADYKDDDDK
aggrecanase activity in culture supernatant [3]: detected
